Source: patent US20260365641A1, “Aromatic Acetylene Derivative, Preparation Method Therefor, And Use Thereof” (Zhejiang Hisun Pharmaceutical Co., Ltd., priority 2022, published 2026)
≈ marks a conversion by molar mass, not a printed value.

Assays:
[1] = target: T1, recombinant Pseudomonas aeruginosa LpxC (Pseudomonas aeruginosa, UniProt P47205); experiment: Inhibition of enzymatic activity of recombinant Pseudomonas aeruginosa LpxC in vitro; type: biochemical; conditions: 5 nM LpxC; substrate UDP-3-O—(R-3-hydroxydecanoyl)-GlcNAc; 25 °C, 120 minutes; fluorescamine readout
T1 construct: purchased Signalway Antibody AP74647-2
T1 sequence (P47205 1-303): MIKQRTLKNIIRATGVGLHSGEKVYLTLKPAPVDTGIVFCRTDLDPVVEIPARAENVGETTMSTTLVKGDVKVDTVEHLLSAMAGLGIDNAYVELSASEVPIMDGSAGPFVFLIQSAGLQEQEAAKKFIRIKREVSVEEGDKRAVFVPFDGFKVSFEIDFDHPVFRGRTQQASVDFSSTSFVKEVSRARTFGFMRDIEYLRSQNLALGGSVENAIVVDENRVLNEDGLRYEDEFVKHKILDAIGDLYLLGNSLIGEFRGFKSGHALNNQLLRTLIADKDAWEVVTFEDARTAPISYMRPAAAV
Outline: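 LpxC (5 nM final) was incubated with compound (8-point 4-fold series, 0.61–10000 nM) and […] UDP-3-O-(R-3-hydroxydecanoyl)-GlcNAc for 120 min at 25 °C. Product was detected with fluorescamine (Ex 390/Em 495 nm) after a pH 8.0 phosphate stop. IC50 was fitted by nonlinear regression against 0.1% DMSO control.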

E. coli ATCC 25922 = experiment: Antibacterial activity, minimum inhibitory concentration (MIC) in vitro, broth dilution; type: cell-based; conditions: Escherichia coli, ATCC25922, 5×10^5 cfu/mL, 35 °C, 18-24 hours
Outline: (§1)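 Broth microdilution per CLSI in CAMHB, inoculum 5×10^5 cfu/mL. Compound added from 100× DMSO working stocks across 11 two-fold dilutions, final 64 to 0.06 μg/mL. Incubated 18-24 h at 35 °C.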

K. pneumoniae ATCC13883 = experiment: as above; type: cell-based; conditions: Klebsiella pneumoniae, 5×10^5 cfu/mL, 35 °C, 18-24 hours
Outline: as §1

K. pneumoniae ATCC51504 = experiment: as above; type: cell-based; conditions: Klebsiella pneumoniae, 5×10^5 cfu/mL, 35 °C, 18-24 hours
Outline: as §1

| Compound | IC50 [1] [nM] | MIC (E. coli ATCC 25922) [µg/mL] | MIC (K. pneumoniae ATCC13883) [µg/mL] | MIC (K. pneumoniae ATCC51504) [µg/mL] |
| --- | --- | --- | --- | --- |
| C[C@H](O)c1nccn1Cc1cc(-c2ccc(C#CC3=CCN(Cc4ccc(C(=O)O)cc4)CC3)cc2)on1 [Example 34, (S)-4-((4-((4-(3-((2-(1-hydroxyethyl)-1H-imidazol-1-yl)methyl)isoxazol-5-yl)phenyl)ethynyl)-3,6-dihydropyridin-1(2H)-yl)methyl)benzoic acid] | 26.7 | 2 (≈ 3.93 µM) | 4 (≈ 7.87 µM) |  |
| CNC(=O)N1CC2(CC(C#Cc3ccc(-c4cc(Cn5ccnc5[C@H](C)O)no4)cc3)C2)C1 [Example 47, (S)-6-((4-(3-((2-(1-hydroxyethyl)-1H-imidazol-1-yl)methyl)isoxazol-5-yl)phenyl)ethynyl)-N-methyl-2-azaspiro[3.3]heptane-2-carboxamide] | 13.1 | 2 (≈ 4.49 µM) | 2 (≈ 4.49 µM) |  |
| C[C@H](O)c1nccn1Cc1cc(-c2ccc(C#CC3CC4(C3)CN(C(=O)n3ccnc3)C4)cc2)on1 [Example 48, (S)-(6-((4-(3-((2-(1-hydroxyethyl)-1H-imidazol-1-yl)methyl)isoxazol-5-yl)phenyl)ethynyl)-2-azaspiro[3.3]heptan-2-yl)(1H-imidazol-1-yl)methanone] | 27.9 | 2 (≈ 4.14 µM) | 2 (≈ 4.14 µM) |  |
| C[C@H](O)c1nccn1Cc1cc(-c2ccc(C#CC3CC4(C3)CN(C3CC(C#N)C3)C4)cc2)on1 (stereo partly drawn) [Example 49, (S)-3-(6-((4-(3-((2-(1-hydroxyethyl)-1H-imidazol-1-yl)methyl)isoxazol-5-yl)phenyl)ethynyl)-2-azaspiro[3.3]heptan-2-yl)cyclobutane-1-carbonitrile] | 22.6 | 1 (≈ 2.14 µM) | 2 (≈ 4.28 µM) |  |
| C[C@H](O)c1nccn1Cc1cc(-c2ccc(C#CC3CC4(C3)CN(Cc3ncco3)C4)cc2)on1 [Example 52, (S)-1-(1-((5-(4-((2-(oxazol-2-ylmethyl)-2-azaspiro[3.3]heptan-6-yl)ethynyl)phenyl)isoxazol-3-yl)methyl)-1H-imidazol-2-yl)ethan-1-ol] | 13.9 | 1 (≈ 2.13 µM) | 2 (≈ 4.26 µM) | 1 (≈ 2.13 µM) |
| C[C@H](O)c1nccn1Cc1cc(-c2ccc(C#CC3CC4(C3)CN(CCn3cncn3)C4)cc2)on1 [Example 53, (S)-1-(1-((5-(4-((2-(2-(1H-1,2,4-triazol-1-yl)ethyl)-2-azaspiro[3.3]heptan-6-yl)ethynyl)phenyl)isoxazol-3-yl)methyl)-1H-imidazol-2-yl)ethan-1-ol] |  | 2 (≈ 4.14 µM) | 8 (≈ 16.5 µM) | 2 (≈ 4.14 µM) |
